Data on two compounds can be found in publication PMC10313808, “Lipoxygenase inhibitory synthetic derivatives of methyl gallate regulate gene expressions of COX-2 and cytokines to reduce animal model arthritis” (Scientific Reports, 2023).

The target in assay [1] is T1, Lipoxidase from Glycine max (15- LOX) (Glycine max, UniProt P08170).
T1 construct: purchased Sigma (Sigma-Aldrich, UK)
T1 sequence (P08170 1-839): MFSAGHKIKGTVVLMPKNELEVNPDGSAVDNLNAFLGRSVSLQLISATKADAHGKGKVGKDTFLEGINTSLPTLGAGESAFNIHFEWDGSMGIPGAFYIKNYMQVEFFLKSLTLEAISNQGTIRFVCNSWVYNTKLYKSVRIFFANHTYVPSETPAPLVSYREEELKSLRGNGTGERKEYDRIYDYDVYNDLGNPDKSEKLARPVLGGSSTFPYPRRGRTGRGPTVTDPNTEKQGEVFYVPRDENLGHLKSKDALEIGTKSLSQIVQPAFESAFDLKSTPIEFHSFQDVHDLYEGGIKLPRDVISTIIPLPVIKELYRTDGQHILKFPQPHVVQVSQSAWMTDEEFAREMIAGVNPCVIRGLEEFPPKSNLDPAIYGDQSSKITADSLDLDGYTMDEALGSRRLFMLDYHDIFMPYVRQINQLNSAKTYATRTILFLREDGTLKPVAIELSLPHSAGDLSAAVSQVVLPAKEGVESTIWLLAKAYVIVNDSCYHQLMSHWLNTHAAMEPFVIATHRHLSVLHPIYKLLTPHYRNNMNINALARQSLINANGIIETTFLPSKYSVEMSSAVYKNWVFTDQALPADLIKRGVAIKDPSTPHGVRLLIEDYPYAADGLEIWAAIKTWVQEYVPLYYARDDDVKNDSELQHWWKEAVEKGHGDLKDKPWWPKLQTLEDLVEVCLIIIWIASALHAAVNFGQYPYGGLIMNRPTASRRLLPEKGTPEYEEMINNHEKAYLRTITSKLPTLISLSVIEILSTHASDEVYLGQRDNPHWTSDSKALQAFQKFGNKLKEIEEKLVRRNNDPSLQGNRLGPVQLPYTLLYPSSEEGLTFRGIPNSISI
Briefly: Michaelis–Menten enzyme kinetics (Lineweaver-Burk). In kind it is biochemical. The settings on record: for IC50: Cheng–Prusoff from Ki. The procedure: To identify the mode of inhibition, enzyme kinetics assay was performed with MGSDs. For the kinetic analysis different substrate concentrations of 18, 27, 36, 45, 54, 63 µM were prepared in 0.2 mM borate buffer (H 9)[16]. The assay mixture was made of 50 µL of LOX, 50 µL of the test solution and different concentrations of the substrate. The final volume was made upto 2 mL with corresponding borate buffer quantity. The activity of LOX was measured by the formation of […], which was monitored at 234 nm on spectrophotometer, (HITACHI U 2900, Japan). The reaction was measured at a time span of 300 s. The same experiment was repeated in the presence of 0.1, 0.08 and 0.06 μM concentration of MGSDs. The Line Weaver-Burk plot was constructed and Michaelis–Menten constant (Km) and Maximal Velocity (Vmax) were determined from the plot. From the Km and Vmax obtained, the inhibitor constant, Ki was calculated using the following equation derived from the Michaelis–Menten Equation: Km′=Km1+I0/Ki. The IC50was calculated using the Cheng–Prusoff equation, Ki=IC50/1+S/Km.

In another assay the target is T2, LOX (Glycine max, UniProt P08170).
T2 construct: purchased Sigma (Sigma-Aldrich, UK)
T2 sequence (P08170 1-839): T1 sequence (P08170 1-839)
Kind of assay: Fluorescence quenching studies. The class given is binding. The settings on record: 296 K, pH 9. From the text:
To analyze the type of mechanism, the data of fluorescence of LOX was plotted, as relative fluorescence intensity (F0/F), against MGSDs. Here F and F0 are the fluorescence intensity in the presence and absence of MGSDs respectively. The Stern–Volmer constants were obtained from the plot by linear regression using the expression: F0/F=1+KsvQ.
Ksv is the Stern–Volmer constant and [Q] is the respective concentration of derivatives. Ksv which depicts the binding affinity between the fluorophore (protein) and quencher (ligand), were obtained from the slopes of the plot (Supplementary Fig. 15). […] The Fluorescence quenching data provided information about the binding constant (K), the number of binding sites (n), and the values could be arrived by applying the equation. Log F0-F/F=log K+nlogQ.
The Fluoromax-4 spectrophotometer (Spectra-NanoLED source 278) was used for studying fluorescence quenching of the compound. Bandwidth set at 5 nm for both excitation and emission spectra. The wavelength was set for excitation at 280 nm and the emission was recorded at 290–450 nm using 1.0 cm cell at 296 K temperature. The LOX with a concentration of 7 μM, dissolved in borate buffer at pH 9 and ligands at the concentrations of 35, 70, 105, 140, 175, 210, 245 and 280 μM were used for the experiment.

Assay [2] deals with T1, Lipoxidase from Glycine max (15- LOX). Details: method as in PMID 29847215. The settings on record: read-out: IC50 (LOX enzyme); previous study ref 16; cited from earlier work.

SMILES strings stand for the structures. Where two headings read alike, the source gives them in different places.

By IC50 is commonly meant the concentration that gives 50% inhibition. As usually defined, the Ki is the dissociation constant of the complex between target and ligand, obtained from inhibition or displacement. As to `O=C(O)COc1cc(C(=O)O)cc(OCC(=O)O)c1OCC(=O)O` [MGSD 1, 2,2′,2″-((5-carboxybenzene-1,2,3-triyl)tris(oxy)) tri acetic acid], the IC50 in assay [1] was 102 nM; in assay [1] (abstract), 100 nM. The same compound showed a Ki in assay [1] (linoleic acid substrate, competitive) of 30 nM. For the same compound, at LOX (read-out: Binding constant (K) (converted)), the Kd is 752000 nM. On LOX (Stern–Volmer), the “Quenching constant (Ksv)” value was found to be 6200 M⁻¹.

`COC(=O)c1cc(O)c(O)c(O)c1` [Methyl gallate]: the IC50 in assay [2] was 30700 nM.
